In patent US10610564B2, “IRGM and precision autophagy controls for antimicrobial and inflammatory disease states and methods of detection of autophagy” (STC.UNM, priority 2015, dated 2020):

Key:
NOD2 = test: Western blot of NOD2 levels in HEK293T cells co-expressing GFP-IRGM and Flag-NOD2; type: cell-based; conditions: Bafilomycin A1 100 nM for 8 h
Method: (A) Effects of IRGM expression on NOD2 levels in transfected HEK293T cells. Data, means±SE; *, p<0.05 (Student's unpaired t test). (B) Lysates of HEK293T cell co-expressing GFP or GFP-IRGM and Flag-NOD2, untreated/treated with Bafilomycin A1 (100 nM for 8 h) were subjected to Western blotting. (C) Lysates of cells co-expressing Flag-NOD2 and GFP, GFP-IRGM, or GFP-IRGM-K^mut were subjected to Western blotting. (D, E) Lysates from HEK293T cells co-expressing Myc-ULK1 and either GFP or increasing amounts of GFP-IRGM were subjected to Western blotting as in (D) with the relative abundance of Myc-ULK1 shown in (E). Blot was processed (dashed vertical line) to remove irrelevant lanes. (F) HEK293T cells transfected with plasmids encoding GFP, GFP-IRGM, or GFP-IRGM-K^mut and either Myc-ULK1 or Flag-Beclin 1 were lysed and subjected to Western blotting. Data from densitometric analyses of Western blots (B, C, E), means±SE, n=3*, p<0.05 (ANOVA). (G) Depiction of the role of IRGM ubiquitination in NOD2 degradation and ULK1 stabilization. See also FIG. 13.

NLRP3 = NLRP3 levels by immunoblot in THP-1 cells; type: cell-based, human; conditions: THP-1 cells treated with IFN-γ and LPS, with or without bafilomycin A1
Method: (A) Levels of NLRP3 were determine in lysates from THP-1 cells subjected to TRIM20 or Scr siRNA were activated with 1,000 U/mL IFN-γ for 3 h, and 2.5 μg/mL LPS for 2 h (for optimal TRIM20 expression; Supplementary FIG. 24B). RI, relative intensity. (B) Levels of NLRP3 were determined from THP-1 subjected to TRIM20 or control knockdown and treated or not with bafilomycin A1 (Baf A1). (C) The abundance of NLRP3 protein was determined from THP-1 cells subjected to TRIM20 or control knockdown and exposed to Escherichia coli strain LF82 and IFN-γ in the presence or absence of bafilomycin. (D) The abundance of NLRP3 protein was determined from primary human MDMs subjected to TRIM20 or control knockdown and exposed to LPS and IFN-γ in the presence or absence of bafilomycin. (E) Levels of NLRP3 were determined from THP-1 cells subjected to ULK1, Beclin 1, or Scr siRNA were treated with IFN-γ and LPS. (F-H) Levels of NLRP3 (F), NLRP1 (G), or pro-capsase 1 (H) were determined in cells expressing GFP or GFP-TRIM20 following autophagy induction (EBSS, 3 h) in the presence or absence of bafilomycin A1. […]
(A) Co-immunoprecipitation analysis of deletion variants of TRIM20 (as GFP fusions; asterisks denote fusion products on the bottom blot) with NLRP3 in HEK293 cells. […] (E) THP-1 cells were treated with 1.0 μg/ml of LPS for 3 h, and levels of NLRP3 in lysate were determined by immunoblots. […]

[1] = system: NLRP3, NLRP1, pro-caspase 1, TRIM20; test: Levels of inflammasome components and GFP-TRIM20 in cells expressing GFP-TRIM20 after autophagy induction (EBSS); type: cell-based; conditions: EBSS 3 h, with bafilomycin A1
Method: (A) Levels of NLRP3 were determine in lysates from THP-1 cells subjected to TRIM20 or Scr siRNA were activated with 1,000 U/mL IFN-γ for 3 h, and 2.5 μg/mL LPS for 2 h (for optimal TRIM20 expression; Supplementary FIG. 24B). RI, relative intensity. (B) Levels of NLRP3 were determined from THP-1 subjected to TRIM20 or control knockdown and treated or not with bafilomycin A1 (Baf A1). (C) The abundance of NLRP3 protein was determined from THP-1 cells subjected to TRIM20 or control knockdown and exposed to Escherichia coli strain LF82 and IFN-γ in the presence or absence of bafilomycin. (D) The abundance of NLRP3 protein was determined from primary human MDMs subjected to TRIM20 or control knockdown and exposed to LPS and IFN-γ in the presence or absence of bafilomycin. (E) Levels of NLRP3 were determined from THP-1 cells subjected to ULK1, Beclin 1, or Scr siRNA were treated with IFN-γ and LPS. (F-H) Levels of NLRP3 (F), NLRP1 (G), or pro-capsase 1 (H) were determined in cells expressing GFP or GFP-TRIM20 following autophagy induction (EBSS, 3 h) in the presence or absence of bafilomycin A1. Data, means±SE, n≥3, *P<0.05, ^†P≥0.05 (ANOVA).
(A) Co-immunoprecipitation analysis of deletion variants of TRIM20 (as GFP fusions; asterisks denote fusion products on the bottom blot) with NLRP3 in HEK293 cells. (B) THP-1 cells were treated with IFN-γ for 3 h, additionally treated with 2.5 μg/ml of LPS for indicated periods, and TRIM20 mRNA levels were determined by quantitative PCR. […] (C and D) Levels of NLRP3 were determined in lysates from THP-1 cells subjected to TRIM20 or Scr siRNA were (C) untreated either IFN-γ or LPS, or (D) LPS alone for 2 h. (E) THP-1 cells were treated with 1.0 μg/ml of LPS for 3 h, and levels of NLRP3 in lysate were determined by immunoblots. (F) Knockdown efficacies of ULK1 and Beclin 1 by siRNA were examined by quantitative RT-PCR. (G and H) Levels of GFP-TRIM20 were determined in cells co-expressing (G) with or (H) without NLRP3 following autophagy induction (EBSS, 3 h) in the presence or absence of bafilomycin A1. […]

dimerized IRF3 = test: IRF3 dimerization assay (native PAGE) in THP-1 cells; type: cell-based, human; conditions: HT-DNA and IFN-γ, with bafilomycin
Excerpt: (A) Confocal microscopy of HeLa cells co-expressing mCherry-TRIM21, Flag-IRF3, and GFP-LC3B in the presence of bafilomycin A1. White outline, cell boundary. Arrows indicate the colocalization. (B) Confocal microscopy of HEK293 cells co-expressing mCherry-TRIM21, Flag-IRF3, and GFP-ULK1. (C) Co-immunoprecipitation analysis of IRF3-ULK1 complexes in the presence and absence of TRIM21. Lysates from HEK293 cells transiently expressing Myc-ULK1, Flag-IRF3, and either […] or GFP were immunoprecipitated with anti-Myc, and immunoblots were probed as indicated. (D) Levels of dimerized IRF3 were assessed by native PAGE from THP-1 cells subjected to TRIM21 or control knockdown, and stimulated for 12 h by herring testis DNA (HT-DNA) transfected into the cells in the presence of 200 U/mL IFN-γ. […]
Detection of IRF3 dimerization was performed by native polyacrylamide gel electrophoresis (PAGE) as previously described (Takahasi et al., 2003). Quantitative RT-PCR was performed as previously described (Kimura et al., 2013) using the following primer sets: ULK1, ([…], […]); BECN1, ([…], […]); ACTIN, ([…], […]); TRIM1, ([…], […]); TRIM5, ([…], […]); TRIM8, ([…], […]); TRIM16, ([…], […]); TRIM20, ([…], […]); TRIM21, ([…], […]); TRIM22, ([…], […]); TRIM28, ([…], […]); TRIM56, ([…], […]); and TRIM65, ([…], […]). […]

AMPK = conditions: statement in figure legend; compound C used at 20, 40, 80, 160 μM; cited from earlier work

SMILES: CO/C1=C\C(C)=C\[C@@H](C)[C@@H](O)[C@@H](C)C/C(C)=C/C=C/[C@H](OC)[C@@H]([C@@H](C)[C@@H](O)[C@H](C)[C@@]2(O)C[C@@H](O)[C@H](C)[C@@H](C(C)C)O2)OC1=O [bafilomycin A1]
- IRGM-promoted NOD2 degradation (NOD2): partially blocked
- NLRP3 degradation (NLRP3): protected NLRP3
- TRIM20 degradation in the presence of NLRP3 ([1]; GFP-TRIM20 co-expressed with NLRP3): protected
- degradation of pro-caspase 1 and NLRP1 co-expressed with TRIM20 ([1]; cells expressing GFP-TRIM20): inhabitable
- destabilizing effect of TRIM20 overexpression on NLRP3 levels ([1]; cells expressing GFP-TRIM20): suppressed
- dimerized IRF3 degradation (dimerized IRF3): protected dimerized IRF3 from degradation

SMILES: c1cc(-c2cnn3cc(-c4ccc(OCCN5CCCCC5)cc4)cnc23)ccn1 [Compound C]
- AMPK inhibition (AMPK): potent inhibitor of AMPK
